Laboratory results taken from patent publication US20130137716A1, “PARENTERAL DEXTROSE FORMULATION OF CLOPIDOGREL” (ACADEMIC PHARMACEUTICALS INCORPORATED, priority 2011, published 2013).

Test: Storage stability of clopidogrel solution at room temperature and at 40°
Type: physicochemical

- ability of solvent to form a stable solution of clopidogrel (D5W (5% dextrose in water)): not capable of forming a stable solution
- ability of solvent to form a stable solution of clopidogrel (D50W (50% dextrose in water), room temperature and 40°): capable of forming a stable solution
Compound: COC(=O)[C@H](c1ccccc1Cl)N1CCc2sccc2C1 [clopidogrel]
